Measured values published in patent US6355799B1, “Substituted benzene compounds, process for their preparation, and herbicidal and defoliant compositions containing them” (ISK Americas Incorporated, priority 1997, dated 2002).

Tests used:
Assay type in all cases: in vivo
[1] = test system: upland rice (Oryza sp., var. Tebonnet, RICE); assay: Post-emerge test, crop safety; conditions: post-emerge, 14 days after application, rating scale 0-100
How it was run: (§1)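 Compounds in acetone were track-sprayed at 15-1000 g ai/ha (187 l/ha) on sandy loam pots: pre-emerge one day after seeding, post-emerge at 2-3 leaf stage with 0.25% v/v non-ionic surfactant. Phytotoxicity was rated 14 days later on a 0 (no damage) to 100 (complete death) scale.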

[2] = test system: field corn (Zea mays L., var. Dekalb 535, CORN); assay: Post-emerge test, crop safety; conditions: post-emerge, 14 days after application, rating scale 0-100
How it was run: as §1

[3] = test system: redroot pigweed (Amaranthus retroflexus, AMARE); assay: Pre-emerge test, greenhouse herbicide activity screening; conditions: rated 14 days after application, 0 = no damage, 100 = complete death
How it was run: (§2)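 Visual ratings on a 0-100 scale (0 no damage, 100 all plants dead) were taken at 14 days after treatment. Rates of 15-1000 g ai/ha in acetone, 187 l/ha, were sprayed onto soil one day after planting (pre-emerge) or onto 2-3 leaf plants with 0.25% v/v surfactant (post-emerge).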

[4] = test system: upland rice (Oryza sp., var. Tebonnet, RICE); assay: Pre-emerge test, crop safety; conditions: rated 14 days after application, 0 = no damage, 100 = complete death
How it was run: (§3)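 Applied at 15–1000 g ai/ha from acetone in 187 l/ha spray volume. Post-emergence applications included 0.25% v/v non-ionic surfactant and reached plants sown 8–21 days before. Pre-emergence applications were incorporated by surface watering. Efficacy or crop damage was rated on a 0–100 scale after 14 days.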

[5] = test system: field corn (Zea mays L., var. Dekalb 535, CORN); assay: Pre-emerge test, crop safety; conditions: rated 14 days after application, 0 = no damage, 100 = complete death
How it was run: as §3

[6] = test system: green foxtail (Setaria viridis, SETVI); assay: Pre-emerge test, greenhouse herbicide activity screening; conditions: rated 14 days after application, 0 = no damage, 100 = complete death
How it was run: as §1

[7] = test system: large crabgrass (Digitaria sanguinalis, DIGSA); assay: as above; conditions: rated 14 days after application, 0 = no damage, 100 = complete death
How it was run: as §1

[8] = test system: lambsquarters (Chenopodium album, CHEAL); assay: as above; conditions: rated 14 days after application, 0 = no damage, 100 = complete death
How it was run: as §1

[9] = test system: velvetleaf (Abutilon theophrasti, ABUTH); assay: as above; conditions: rated 14 days after application, 0 = no damage, 100 = complete death
How it was run: as §1

[10] = test system: johnsongrass (Sorghum halepense, SORHA); assay: as above; conditions: rated 14 days after application, 0 = no damage, 100 = complete death
How it was run: as §1

[11] = test system: sicklepod (Cassia obtusifolia, CASOB); assay: as above; conditions: rated 14 days after application, 0 = no damage, 100 = complete death
How it was run: as §1

[12] = test system: ivyleaf morningglory (Ipomoea hederacea, IPOHE); assay: as above; conditions: rated 14 days after application, 0 = no damage, 100 = complete death
How it was run: as §1

[13] = test system: barnyardgrass (Echinochloa crus-galli, ECHCG); assay: as above; conditions: rated 14 days after application, 0 = no damage, 100 = complete death
How it was run: as §1

[14] = test system: redroot pigweed (Amaranthus retroflexus, AMARE); assay: Post-emerge test, greenhouse herbicide activity screening; conditions: post-emerge, 14 days after application, rating scale 0-100
How it was run: as §2

[15] = test system: green foxtail (Setaria viridis, SETVI); assay: as above; conditions: post-emerge, 14 days after application, rating scale 0-100
How it was run: as §2

[16] = test system: large crabgrass (Digitaria sanguinalis, DIGSA); assay: as above; conditions: post-emerge, 14 days after application, rating scale 0-100
How it was run: as §2

[17] = test system: lambsquarters (Chenopodium album, CHEAL); assay: as above; conditions: post-emerge, 14 days after application, rating scale 0-100
How it was run: as §2

[18] = test system: velvetleaf (Abutilon theophrasti, ABUTH); assay: as above; conditions: post-emerge, 14 days after application, rating scale 0-100
How it was run: as §2

[19] = test system: johnsongrass (Sorghum halepense, SORHA); assay: as above; conditions: post-emerge, 14 days after application, rating scale 0-100
How it was run: as §2

[20] = test system: sicklepod (Cassia obtusifolia, CASOB); assay: as above; conditions: post-emerge, 14 days after application, rating scale 0-100
How it was run: as §2

[21] = test system: ivyleaf morningglory (Ipomoea hederacea, IPOHE); assay: as above; conditions: post-emerge, 14 days after application, rating scale 0-100
How it was run: as §2

[22] = test system: barnyardgrass (Echinochloa crus-galli, ECHCG); assay: as above; conditions: post-emerge, 14 days after application, rating scale 0-100
How it was run: as §2

SMILES: COc1c(Cl)cc(F)c(-n2c(=O)cc(C(F)(F)F)n(C)c2=O)c1NC(=O)COc1ccccc1 [2-119]
- phytotoxicity rating RICE ([1]; 63 g ai/ha): 60
- phytotoxicity rating RICE ([1]; 250 g ai/ha): 90
- phytotoxicity rating CORN ([2]; 63 g ai/ha): 70
- phytotoxicity rating CORN ([2]; 250 g ai/ha): 90
- Pre-emerge Herbicidal Activity, phytotoxicity rating (0-100), AMARE ([3]; 63 g ai/ha): 100
- Pre-emerge Herbicidal Activity, phytotoxicity rating (0-100), AMARE ([3]; 250 g ai/ha): 100
- Pre-emerge phytotoxicity rating (0-100), crop damage, RICE ([4]; 63 g ai/ha): 70
- Pre-emerge phytotoxicity rating (0-100), crop damage, RICE ([4]; 250 g ai/ha): 100
- Pre-emerge phytotoxicity rating (0-100), crop damage, CORN ([5]; 63 g ai/ha): 20
- Pre-emerge phytotoxicity rating (0-100), crop damage, CORN ([5]; 250 g ai/ha): 90
- Pre-emerge Herbicidal Activity, phytotoxicity rating (0-100), SETVI ([6]; 63 g ai/ha): 100
- Pre-emerge Herbicidal Activity, phytotoxicity rating (0-100), SETVI ([6]; 250 g ai/ha): 100
- Pre-emerge Herbicidal Activity, phytotoxicity rating (0-100), DIGSA ([7]; 63 g ai/ha): 70
- Pre-emerge Herbicidal Activity, phytotoxicity rating (0-100), DIGSA ([7]; 250 g ai/ha): 100
- Pre-emerge Herbicidal Activity, phytotoxicity rating (0-100), CHEAL ([8]; 63 g ai/ha): 100
- Pre-emerge Herbicidal Activity, phytotoxicity rating (0-100), CHEAL ([8]; 250 g ai/ha): 100
- Pre-emerge Herbicidal Activity, phytotoxicity rating (0-100), ABUTH ([9]; 63 g ai/ha): 100
- Pre-emerge Herbicidal Activity, phytotoxicity rating (0-100), ABUTH ([9]; 250 g ai/ha): 100
- Pre-emerge Herbicidal Activity, phytotoxicity rating (0-100), SORHA ([10]; 63 g ai/ha): 75
- Pre-emerge Herbicidal Activity, phytotoxicity rating (0-100), SORHA ([10]; 250 g ai/ha): 100
- Pre-emerge Herbicidal Activity, phytotoxicity rating (0-100), CASOB ([11]; 63 g ai/ha): 60
- Pre-emerge Herbicidal Activity, phytotoxicity rating (0-100), CASOB ([11]; 250 g ai/ha): 90
- Pre-emerge Herbicidal Activity, phytotoxicity rating (0-100), IPOHE ([12]; 63 g ai/ha): 70
- Pre-emerge Herbicidal Activity, phytotoxicity rating (0-100), IPOHE ([12]; 250 g ai/ha): 100
- Pre-emerge Herbicidal Activity, phytotoxicity rating (0-100), ECHCG ([13]; 63 g ai/ha): 70
- Pre-emerge Herbicidal Activity, phytotoxicity rating (0-100), ECHCG ([13]; 250 g ai/ha): 95
- phytotoxicity rating AMARE ([14]; 63 g ai/ha): 90
- phytotoxicity rating AMARE ([14]; 250 g ai/ha): 100
- phytotoxicity rating SETVI ([15]; 63 g ai/ha): 40
- phytotoxicity rating SETVI ([15]; 250 g ai/ha): 90
- phytotoxicity rating DIGSA ([16]; 63 g ai/ha): 30
- phytotoxicity rating DIGSA ([16]; 250 g ai/ha): 80
- phytotoxicity rating CHEAL ([17]; 63 g ai/ha): 80
- phytotoxicity rating CHEAL ([17]; 250 g ai/ha): 100
- phytotoxicity rating ABUTH ([18]; 63 g ai/ha): 100
- phytotoxicity rating ABUTH ([18]; 250 g ai/ha): 100
- phytotoxicity rating SORHA ([19]; 63 g ai/ha): 60
- phytotoxicity rating SORHA ([19]; 250 g ai/ha): 90
- phytotoxicity rating CASOB ([20]; 63 g ai/ha): 30
- phytotoxicity rating CASOB ([20]; 250 g ai/ha): 60
- phytotoxicity rating IPOHE ([21]; 63 g ai/ha): 100
- phytotoxicity rating IPOHE ([21]; 250 g ai/ha): 100
- phytotoxicity rating ECHCG ([22]; 63 g ai/ha): 40
- phytotoxicity rating ECHCG ([22]; 250 g ai/ha): 90
